{"source": "patent US8722343B2", "about": "“Methods and compositions for the diagnosis and treatment of diabetes” (priority 2008, dated 2014)", "key": {"GLT1": {"target": "T1, GLT1 (Homo sapiens, UniProt P43004)", "T1 construct": "from tissue; host or cells: isolated human pancreatic islets from cadaveric multiorgan donors", "T1 sequence (P43004 whole entry)": "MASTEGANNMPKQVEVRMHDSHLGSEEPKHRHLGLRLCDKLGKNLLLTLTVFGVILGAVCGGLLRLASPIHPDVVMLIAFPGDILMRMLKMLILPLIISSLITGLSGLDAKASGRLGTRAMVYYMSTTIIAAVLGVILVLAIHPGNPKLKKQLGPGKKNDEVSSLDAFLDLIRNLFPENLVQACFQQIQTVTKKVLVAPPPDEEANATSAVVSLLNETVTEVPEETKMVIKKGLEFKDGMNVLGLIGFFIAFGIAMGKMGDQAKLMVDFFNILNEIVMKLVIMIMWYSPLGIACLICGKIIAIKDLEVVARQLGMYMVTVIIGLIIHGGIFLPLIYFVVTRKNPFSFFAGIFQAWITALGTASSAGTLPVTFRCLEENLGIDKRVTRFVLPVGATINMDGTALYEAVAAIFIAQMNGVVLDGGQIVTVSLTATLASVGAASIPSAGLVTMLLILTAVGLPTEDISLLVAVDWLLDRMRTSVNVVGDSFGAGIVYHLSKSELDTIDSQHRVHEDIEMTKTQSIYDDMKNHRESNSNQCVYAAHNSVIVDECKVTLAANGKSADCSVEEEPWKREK", "test": "Na-dependent [3H]-D-aspartate uptake in isolated human islets", "format": "cell-based", "set-up": "dose or concentration left out as unconfirmed", "description": "3B: 3H-D Aspartate uptake. The Na-dependent (NaCl) and Na-independent (ChCl) [3H]-D-Aspartate uptake was measured in 40, hand picked, isolated human islets. […] Data are expressed as % of Na-dependent uptake (NaCl) and represent the mean±SE of at least three independent experiments performed in triplicate. * (DHK versus controls) P<0.001.\nHuman pancreatic islets were isolated from the pancreases of cadaveric multiorgan donors by using the procedure already described by Ricordi (Ricordi, et al, 1988). The islets used in this study were isolated from eight different organs. After the isolation, the islets were purified from the contaminant exocrine tissue by centrifugation on Ficoll gradients, obtaining a final purity that ranged from 60% to 80%, as assayed by dithizone staining (Ricordi et al, 1988). Islets were then cultured in RPMI 1640 tissue culture medium. After a 48-h stabilization culture, old medium was replaced with fresh medium and islets were cultured until used for insulin secretory studies, RNA extraction and uptake experiments. For apoptosis assay, fresh medium containing glutamate (0.5 or 5 mM) or DHK (0.05 or 0.1 mM) was replaced and islets were cultured for additional five days.\n150.000 cells/well were plated in a 24-wells plate, and grown until confluence. […]"}, "[1]": {"test": "MTT cell viability assay in βTC3 cells", "format": "cell-based, mouse", "settings": "mouse; 0.05 mM DHK, five days; read-out: decrease in RGR (βTC3 viability)", "description": "1A: Glutamate induces a dose-dependent beta-cell death. 24 hrs after plating, αTC1 and βTC3 cells were incubated for five days with the indicated glutamate concentrations and viability was assessed by MTT assay. Data are presented as % Relative Growth Rate (RGR) versus controls (100%) and represent the mean±SE of at least 7 independent experiments (n=6). * p<0.01 vs ctrl; ° p<0.01 vs Glu 5 mM in αTC1.\n1C: β-cell death is prevented by pharmacological inhibition of ionotropic channels. 24 hrs after plating, αTC1 and βTC3 cells were incubated for five days with 0.025 mM CNQX (left panel) or 0.1 mM APV (right panel), in the presence or the absence of 5 mM glutamate and viability was assessed by MTT assay. Data are presented as % RGR versus control samples (100%) and represent the mean±SE of three independent experiments (n=5). * p<0.05\n6B. MTT assay. 24 hrs after plating, αTC1 and βTC3 cells were incubated for five days with different DHK concentrations and viability was assessed by MTT assay. Data are presented as % RGR versus control (100%) and represent the mean±SE of three independent experiments (n=8). * (DHK versus control) p<0.05\n8B: MTT assay: 24 hrs after plating, βTC3 cells were incubated for five days with the indicated ceftriaxone concentrations in the presence or absence of 5 mM glutamate and viability was assayed by MTT assay. Data are presented as % RGR versus control (100%) and represent the mean±SE of three independent experiments (n=8). *(ceftriaxone versus relative control) p<0.05.\nβTC3 and αTC1 cells were derived from progeny of transgenic mice expressing SV40 large T-antigen under control of the rat insulin II 5′-flanking region or rat preproglucagon 5′-flanking region, respectively (Powers et al, 1990) and were originally provided by Douglas Hanahan (Department of Biochemistry and Biophysics, University of California, San Francisco, Calif.). βTC3 were grown in RPMI 1640 11 mM glucose, supplemented with 10% heat inactivated fetal bovine serum, 2 mM L-glutamine, and 100 IU/ml streptomycin/penicillin, as previously described (Galbiati et al, 2002). Experiments were performed between the 27 and 33 passage of cell culture.\n3-(4,5-Dimethylthiazol-2-yl)-2,5-diphenyltetrazolium bromide (MTT) assay. βTC3 cells were seeded at a density of 8×10^3 cells/well onto 96-well culture plates. Cells were allowed to attach and grow for 24 h in standard medium. Then medium was replaced with fresh medium containing glutamate, DHK (Dihydrokainic Acid, Sigma Aldrich), glutamate receptor inhibitors APV and CNQX (Sigma Aldrich) or ceftriaxone (Sigma Aldrich) at the indicated concentrations. […] Coloured formazan product was determined spectrophotometrically at 540 nm. 20 islets/tube were used to assess viability in human isolated islets. Data are expressed as % Relative Growth Rate (% RGR) versus control samples."}, "αTC1 cells": {"test_system": "αTC1 cells", "test": "Na-dependent [3H]-D-aspartate uptake in αTC1 cells", "format": "cell-based, mouse", "settings": "DHK in uptake solution", "description": "2D: 3H-D-Aspartate uptake. Four days after plating the Na-dependent (NaCl) and Na-independent (ChCl) [3H]-D-Aspartate uptake was measured in αTC1 and βTC3 cells. Data are expressed as cpm/well/10 min and represent the mean±SE of at least three independent experiments performed in triplicate. * (NaCl vs ChCl) P<0.001; ° (DHK versus control) P<0.001.\n150.000 cells/well were plated in a 24-wells plate, and grown until confluence. After two washes in sodium-free solution (150 mM ChCl, 2 mM KCl, 1 mM CaCl2, 1 mM MgCl2, 10 mM Hepes pH 7.5), cells were incubated for 10 minutes in 200 μl of Na^+-dependent (150 mM NaCl 2 mM KCl, 1 mM CaCl2, 1 mM MgCl2, 10 mM Hepes pH 7.5) or Na^+-independent (sodium-free solution) uptake solution containing 5 μCi/ml of [^3H]D-Aspartic acid (specific activity 37 Ci/mmol; Amersham Biosciences). The amino acid uptake was stopped by washing the cells twice in ice-cold sodium-free solution. Cells were dissolved in 150 μl of SDS 1% for liquid scintillation counting. For transport inhibition, DHK was added to the uptake solution at the indicated concentrations."}}}
{"smiles": "CC(C)[C@H]1CN[C@H](C(=O)O)[C@H]1CC(=O)O", "note": "[DHK, Dihydrokainic Acid]", "values": [{"measurement": "Na-dependent transport of aspartate", "setting": "GLT1", "result": "completely inhibited"}, {"measurement": "cytotoxicity at 5 days, 0.05 mM", "setting": "[1]", "result": 6.17, "unit": "%"}, {"measurement": "Na-dependent D-aspartate uptake", "setting": "αTC1 cells", "result": "not inhibited"}]}
